Results published in the supplement of paper PMC10627819.

Assays:
S. pneumoniae D39V [1] = test: fitness (endpoint OD595 vs no drug) (fraction); higher = more growth
Summary of the method: (§1)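 Fitness expresses the optical density reached at the stationary-phase transition as a fraction of the robust mean of no-drug control wells. It is capped at 1. Measurements were OD595 every 30 min for 14 h at 37 °C after inoculation of 384-well plates at OD595 0.01 (30 µl, or 55 µl for S. pneumoniae), minus the first reading.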

B. subtilis 168 [2] = test: as above
Summary of the method: as §1

S. aureus Newman = test: Bliss interaction score (quartile over a dose matrix) (fitness difference); higher = more antagonism (negative = synergy)
Summary of the method: (§2)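 Quartiles summarise the Bliss score over technical, biological and donor/recipient replicates, where the score is observed minus expected fitness under a product model. Expected fitness uses single-drug values inferred from combination data. Fitness is OD595 at entry into stationary phase over the plate's robust no-drug mean, capped at 1.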

S. pneumoniae D39V [3] = test: as above
Summary of the method: as §2

B. subtilis 168 [4] = test: as above
Summary of the method: as §2

S. aureus DSM 20231 = test: as above
Summary of the method: as §2
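Throughout, for Bliss interaction score (quartile over a dose matrix): first quartile when negative (synergy) and third quartile when positive (antagonism).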

CCC[C@@H]1C[C@@H](C(=O)N[C@@H]([C@H]2O[C@H](SC)[C@H](O)[C@@H](O)[C@H]2O)[C@H](C)Cl)N(C)C1 [Clindamycin] + CCC(C)C1C(=O)NC(=C)C(=O)NC(C(=O)NC(CSCC(C(=O)N1)NC(=O)/C(=C/C)/NC(=O)C(C(C)CC)N)C(=O)NC2C(SCC(NC(=O)CNC(=O)C3CCCN3C2=O)C(=O)NC(CCCCN)C(=O)NC4C(SCC(NC(=O)CNC(=O)C(NC(=O)C(NC(=O)C(NC(=O)CNC4=O)C)CC(C)C)CCSC)C(=O)NC(CC(=O)N)C(=O)NC(CCSC)C(=O)NC(CCCCN)C(=O)NC5C(SCC6C(=O)NC(C(=O)NC(CSC(C(C(=O)N6)NC(=O)C(NC5=O)C)C)C(=O)NC(CO)C(=O)NC(C(C)CC)C(=O)NC(CC7=CN=CN7)C(=O)NC(C(C)C)C(=O)NC(=C)C(=O)NC(CCCCN)C(=O)O)CC8=CN=CN8)C)C)C)CC(C)C [Nisin]
S. pneumoniae D39V [1], main component drawn
Conditions | fitness
first compound 0.0125 µg/mL, partner 1.6 µg/mL | 0.0319
first compound 0.0125 µg/mL, partner 3.2 µg/mL | 0.0224
first compound 0.0125 µg/mL, partner 6.4 µg/mL | 0.0205
first compound 0.015 µg/mL, partner 0.4275 µg/mL | 0.923
first compound 0.015 µg/mL, partner 1.71 µg/mL | 0.11
first compound 0.025 µg/mL, partner 1.6 µg/mL | 0.0417
first compound 0.025 µg/mL, partner 3.2 µg/mL | 0.0389
first compound 0.025 µg/mL, partner 6.4 µg/mL | 0.0111
first compound 0.03 µg/mL, partner 0.4275 µg/mL | 0.774
first compound 0.03 µg/mL, partner 1.71 µg/mL | 0.0769
first compound 0.05 µg/mL, partner 1.6 µg/mL | 0.0221
first compound 0.05 µg/mL, partner 3.2 µg/mL | 0.0421
first compound 0.05 µg/mL, partner 6.4 µg/mL | 0.0305
first compound 0.06 µg/mL, partner 0.4275 µg/mL | 0.645
first compound 0.06 µg/mL, partner 0.855 µg/mL | 0.252
first compound 0.06 µg/mL, partner 1.71 µg/mL | 0.0778

fitness, B. subtilis 168 [2], one replicate, main component drawn
Conditions | first compound 0.0039 µg/mL | first compound 0.0078 µg/mL | first compound 0.0156 µg/mL | first compound 0.0625 µg/mL | first compound 0.125 µg/mL | first compound 0.25 µg/mL
partner 0.5 µg/mL | 0.985 | 0.875 | 0.858 | 0.559 | 0.461 | 0.402
partner 1 µg/mL | 0.936 | 0.847 | 0.834 | 0.565 | 0.389 | 0.371
partner 1.25 µg/mL | – | – | – | 0.647 | 0.47 | 0.386
partner 1.6 µg/mL | – | – | – | 0.455 | 0.196 | 0.0539
partner 2 µg/mL | 0.855 | 0.771 | 0.742 | 0.261 | 0.25 | 0.0613
partner 2.5 µg/mL | – | – | – | 0.564 | 0.423 | 0.275
partner 3.2 µg/mL | – | – | – | 0.0252 | 0.0383 | 0.0454
partner 4 µg/mL | – | – | – | 0.0334 | 0.0299 | 0.0361
partner 5 µg/mL | – | – | – | 0.171 | 0.0548 | 0.0507
partner 6.4 µg/mL | – | – | – | 0.0392 | 0.0456 | 0.0461
partner 8 µg/mL | – | – | – | 0.0341 | 0.0157 | 0.0269
partner 16 µg/mL | – | – | – | 0.0049 | 0.0089 | 0.0163

main component drawn
Conditions | Bliss interaction score
B. subtilis 168 [4] | 0.0605
S. aureus DSM 20231 | 0.0292
S. aureus Newman | 0.0857
S. pneumoniae D39V [3] | -0.0351

CCC[C@@H]1C[C@@H](C(=O)N[C@@H]([C@H]2O[C@H](SC)[C@H](O)[C@@H](O)[C@H]2O)[C@H](C)Cl)N(C)C1 [Clindamycin] + CN(C)C(=O)C(CCN1CCC(O)(c2ccc(Cl)cc2)CC1)(c1ccccc1)c1ccccc1 [Loperamide]
Conditions | fitness
B. subtilis 168 [2], first compound 0.0625 µg/mL, partner 25 µg/mL | 0.577
B. subtilis 168 [2], first compound 0.0625 µg/mL, partner 50 µg/mL | 0.0289
B. subtilis 168 [2], first compound 0.0625 µg/mL, partner 100 µg/mL | 0.0293
B. subtilis 168 [2], first compound 0.125 µg/mL, partner 25 µg/mL | 0.418
B. subtilis 168 [2], first compound 0.125 µg/mL, partner 50 µg/mL | 0.0399
B. subtilis 168 [2], first compound 0.125 µg/mL, partner 100 µg/mL | 0.0277
B. subtilis 168 [2], first compound 0.25 µg/mL, partner 25 µg/mL | 0.254
B. subtilis 168 [2], first compound 0.25 µg/mL, partner 50 µg/mL | 0.0473
B. subtilis 168 [2], first compound 0.25 µg/mL, partner 100 µg/mL | 0.0404
S. pneumoniae D39V [1], first compound 0.0125 µg/mL, partner 20 µg/mL | 0.82
S. pneumoniae D39V [1], first compound 0.0125 µg/mL, partner 40 µg/mL | 0.859
S. pneumoniae D39V [1], first compound 0.0125 µg/mL, partner 80 µg/mL | 0.858
S. pneumoniae D39V [1], first compound 0.015 µg/mL, partner 17.14 µg/mL | 0.938
S. pneumoniae D39V [1], first compound 0.015 µg/mL, partner 34.28 µg/mL | 0.946
S. pneumoniae D39V [1], first compound 0.025 µg/mL, partner 20 µg/mL | 0.614
S. pneumoniae D39V [1], first compound 0.025 µg/mL, partner 40 µg/mL | 0.62
S. pneumoniae D39V [1], first compound 0.025 µg/mL, partner 80 µg/mL | 0.597
S. pneumoniae D39V [1], first compound 0.03 µg/mL, partner 17.14 µg/mL | 0.778
S. pneumoniae D39V [1], first compound 0.03 µg/mL, partner 34.28 µg/mL | 0.769
S. pneumoniae D39V [1], first compound 0.05 µg/mL, partner 20 µg/mL | 0.316
S. pneumoniae D39V [1], first compound 0.05 µg/mL, partner 40 µg/mL | 0.329
S. pneumoniae D39V [1], first compound 0.05 µg/mL, partner 80 µg/mL | 0.285
S. pneumoniae D39V [1], first compound 0.06 µg/mL, partner 17.14 µg/mL | 0.688
S. pneumoniae D39V [1], first compound 0.06 µg/mL, partner 34.28 µg/mL | 0.639

fitness, one replicate
Conditions | first compound 0.0039 µg/mL | first compound 0.0078 µg/mL | first compound 0.015 µg/mL | first compound 0.0156 µg/mL | first compound 0.03 µg/mL | first compound 0.06 µg/mL
B. subtilis 168 [2], partner 25 µg/mL | 0.924 | 0.814 | – | 0.793 | – | –
B. subtilis 168 [2], partner 50 µg/mL | 0.862 | 0.754 | – | 0.595 | – | –
B. subtilis 168 [2], partner 100 µg/mL | 0.53 | 0.385 | – | 0.259 | – | –
S. pneumoniae D39V [1], partner 68.57 µg/mL | – | – | 0.982 | – | 0.896 | 0.725

Conditions | Bliss interaction score
B. subtilis 168 [4] | 0.149
S. aureus DSM 20231 | 0.0957
S. aureus Newman | -0.0895
S. pneumoniae D39V [3] | 0.2

CCC[C@@H]1C[C@@H](C(=O)N[C@@H]([C@H]2O[C@H](SC)[C@H](O)[C@@H](O)[C@H]2O)[C@H](C)Cl)N(C)C1 [Clindamycin] + CO[C@@H]1[C@@H](OC(N)=O)[C@@H](O)[C@H](Oc2ccc3c(O)c(NC(=O)c4ccc(O)c(CC=C(C)C)c4)c(=O)oc3c2C)OC1(C)C [Novobiocin]
fitness, B. subtilis 168 [2], one replicate
Conditions | first compound 0.0039 µg/mL | first compound 0.0078 µg/mL | first compound 0.0156 µg/mL | first compound 0.0625 µg/mL | first compound 0.125 µg/mL | first compound 0.25 µg/mL
partner 0.05 µg/mL | ≥ 1 | 0.895 | 0.867 | – | – | –
partner 0.1 µg/mL | ≥ 1 | 0.889 | 0.843 | – | – | –
partner 0.125 µg/mL | – | – | – | 0.526 | 0.496 | 0.348
partner 0.2 µg/mL | ≥ 1 | 0.903 | 0.818 | – | – | –
partner 0.25 µg/mL | – | – | – | 0.411 | 0.39 | 0.318
partner 0.5 µg/mL | – | – | – | 0.353 | 0.276 | 0.0724

fitness, B. subtilis 168 [2]
Conditions | first compound 0.0625 µg/mL | first compound 0.125 µg/mL | first compound 0.25 µg/mL
partner 0.0125 µg/mL | 0.558 | 0.365 | 0.346
partner 0.025 µg/mL | 0.563 | 0.334 | 0.326
partner 0.05 µg/mL | 0.581 | 0.369 | 0.325

Conditions | Bliss interaction score
B. subtilis 168 [4] | -0.063
S. aureus DSM 20231 | 0.0437
S. aureus Newman | 0.16
S. pneumoniae D39V [3] | -0.102
